Reference: patent US9283233B2, “Method for on-demand contraception” (LABORATOIRE HRA PHARMA, priority 2009, dated 2016)

Assays:
[1] = 3 months of continuous daily administration to healthy cycling volunteers; assessment of ovarian hormones, follicular development, endometrial histology, bleeding patterns; type: in vivo, women; conditions: one patient, 10 mg/day, missed 2 days of drug (days 1 and 2) in third treatment cycle
Protocol: For that purpose, health cycling volunteers received 3 months of continuous daily administration of ulipristal acetate (2.5, 5 or 10 mg) or placebo.
Assessment of ovarian hormones, follicular development, endometrial histology, and menstrual bleeding patterns was carried out during the third month of treatment.
This made the inventors think that ulipristal acetate could be used as a contraceptive which could be taken on-demand, rather than everyday as any hormonal contraceptive pill.

[2] = single dose of 50 mg, within 72 hours after unprotected intercourse; cited from earlier work
[3] = Multiple intakes of ulipristal acetate within a menstrual cycle after declared intercourse (pregnancy outcome); type: in vivo; conditions: 30 mg after a declared intercourse, twice during a menstrual cycle; several women (5 in the table)
Protocol: Multiple Intakes of Ulipristal Acetate within a Menstrual Cycle
Several women received ulipristal acetate (30 mg) after a declared intercourse, twice during a menstrual cycle.

For `CC(=O)O[C@]1(C(C)=O)CC[C@H]2[C@@H]3CCC4=CC(=O)CCC4=C3[C@@H](c3ccc(N(C)C)cc3)C[C@@]21C` [ulipristal acetate, 17α-acetoxy-11β-[4-N,N-dimethylamino-phenyl)-19-norpregna-4,9-diene-3,20-dione], the “luteal activity or ovulation” value [1] is listed as “no sign of luteal activity or ovulation”, the “safety and efficacy as emergency contraception” value [2] is listed as “safe and efficacious” and the pregnancy [3] is listed as “No pregnancy was observed”.
